The source of these data is patent US8507529B2, “Methods of using a nitroxide antioxidant in cosmetic and dermatological compositions” (Jarrow Formulas, Inc., priority 2005, dated 2013).

A short description of data set [1]: Absorption spectra of 50 μM compounds in acetonitrile. As to conditions: 50 μM in acetonitrile, FIG. 2. It is filed as physicochemical. As to the method: FIG. 2. Absorption spectra of 50 μM compounds in acetonitrile.
A short description of data set [2]: Optical absorption spectra before and after UVA exposure (photostability). It is filed as physicochemical. To be noted: 100 μM in phosphate buffer pH 7.4, 275 kJ/m^2 UVA, ethyl acetate extraction, FIG. 3. As to the method: FIG. 3. […] See Detailed Description for experimental details.
The reason for using buffer was to maintain the same medium as the peroxidation experiments so that comparisons between the optical absorption experiments and lipid peroxidation could be meaningful.
10 mM Stock solutions of TEMPOL and the photoactive ingredients were prepared in acetonitrile. […] The solutions were then transferred to a 24 multi-well plate for cell cultures (Orange Scientific, Cambrex BioScience, Walkerville, Inc.) which was placed on a brass block embedded on ice at a distance of 20 cm from the light source. […] After illumination, 2.4 ml of sample were collected from each well and extracted with the same volume of ethyl acetate. The organic phase was separated and its absorption spectrum was then run on a UV Kontron 941 spectrophotometer. For the non-illuminated samples, the same procedure was followed for the same length of time except that the samples were exposed to direct artificial laboratory working light.

Data set [3] in a line: Peroxidation of multilamellar phosphatidylcholine (PC) liposomes induced by UVA, TBA assay (TBARS). As to conditions: 3.5 mM PC liposomes, 275 kJ/m^2 UVA; for level of UVA-induced lipid peroxidation (TBARS absorbance): 100 μM compounds alone or combined, FIG. 4.
The subject of data set [4] is transgenic murine fibroblast culture. As to conditions: transgenic murine fibroblast culture model of cutaneous photoaging; cited from earlier work.
The subject of a further data set is human dermal fibroblasts. As to conditions: cited from earlier work.

Take “2,2,6,6-tetramethyl-piperidin-4-yl-p-methoxy cinnamyloxy-1-oxyl [MC-NO]”: in data set [1], the “spectral profile and extinction coefficient” value was “same spectral profile and extinction coefficient as OMC”. Moreover, the “change in spectral absorption after UVA exposure” value in data set [2] is recorded as “retains the majority of its original absorbance”. The “level of UVA-induced lipid peroxidation (TBARS absorbance)” value in data set [3] is given as “greatly reduced to almost control levels”.

`CCCCC(CC)COC(=O)C=Cc1ccc(OC)cc1` (centres unmarked) [OMC, 2-ethylhexyl-4-methoxycinnamate]: in data set [2], the “change in spectral absorption after UVA exposure” value is “strong decrease in spectral absorption”. For the same compound, the “level of UVA-induced lipid peroxidation (TBARS absorbance)” value in data set [3] was “seems to protect”.

For the compound `COc1ccc(C(=O)CC(=O)c2ccc(C(C)(C)C)cc2)cc1` [Parsol 1789, 4-tert-butyl-4′-methoxydibenzoylmethane], the “level of UVA-induced lipid peroxidation (TBARS absorbance) with Parsol 1789” value in data set [3] (100 μM Parsol 1789 alone or combined with 100 μM compound, FIG. 5) is listed as “significant increase”.

For `CC1(C)CC(O)CC(C)(C)N1[O]` [TEMPOL, 4-hydroxy-2,2,6,6,-tetramethyl-piperidine-1-oxyl], the “protection against UV radiation” value (in data set [4]; with human dermal fibroblasts) was “affords protection against UV radiation” throughout.
